Assay results published in PubChem BioAssay (NCI).
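Grown in 96-well plates, cells were treated for 48 hours with each compound at five concentrations. Insufficient inhibition: endpoint recorded as highest concentration tested. GI50 is the concentration that inhibits growth by half. The concentration for full growth arrest is given as TGI.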

Key:
Assay in all cases: NCI-60 cell line screen, 48 h
RPMI-8226 leukemia = tested on: RPMI-8226 leukemia
SK-MEL-5 melanoma = tested on: SK-MEL-5 melanoma
HOP-62 NSCLC = tested on: HOP-62 NSCLC
HT29 colon = tested on: HT29 colon
SNB-19 CNS = tested on: SNB-19 CNS
SW-620 colon = tested on: SW-620 colon
HCT-116 colon = tested on: HCT-116 colon
ACHN renal = tested on: ACHN renal
SK-OV-3 ovarian = tested on: SK-OV-3 ovarian
COLO 205 colon = tested on: COLO 205 colon

SMILES | GI50 (RPMI-8226 leukemia) [nM] | TGI (RPMI-8226 leukemia) [nM] | TGI (SK-MEL-5 melanoma) [nM] | GI50 (HOP-62 NSCLC) [nM] | TGI (HOP-62 NSCLC) [nM] | GI50 (HT29 colon) [nM] | TGI (HT29 colon) [nM] | GI50 (SNB-19 CNS) [nM] | TGI (SNB-19 CNS) [nM] | GI50 (SW-620 colon) [nM] | TGI (SW-620 colon) [nM] | GI50 (HCT-116 colon) [nM] | TGI (HCT-116 colon) [nM] | TGI (ACHN renal) [nM] | GI50 (SK-OV-3 ovarian) [nM] | TGI (SK-OV-3 ovarian) [nM] | GI50 (COLO 205 colon) [nM] | TGI (COLO 205 colon) [nM] | GI50 (SK-MEL-5 melanoma) [nM] | GI50 (ACHN renal) [nM]
COc1cc2cc(C(=O)N3C[C@H](CCl)c4c3cc(N)c3ccccc43)[nH]c2c(OC)c1OC | 5 | > 50000 | < 5 | 5 | 112 | 5 | 615 | 25.2 | 1240 | 5 | > 50000 | 5 | 600 | < 5 | 39.8 | 819 | < 5 | < 5 |  | 
COc1cc(S(=O)(=O)Nc2ccc(C(=O)/C=C/c3ccc(O)cc3)cc2)ccc1F | 58500 | > 100000 | > 100000 | > 100000 | > 100000 | > 100000 | > 100000 | > 100000 | > 100000 | > 100000 | > 100000 | > 100000 | > 100000 | > 100000 | > 100000 | > 100000 | > 100000 | > 100000 | > 100000 | > 100000
